Like-named read-outs stand apart in the source and are kept apart here.
What was measured:
[1] = target: SQR (SDHC) of D024 SDHC3 KO mitochondria (Zymoseptoria tritici, UniProt F9X9V6+F9XH52+O42772); test: Succinate-quinone (SQR) SDHI sensitivity assay on purified mitochondria, 06STD024 SDHC3 KO; type: biochemical; conditions: for RF (resistance factor), D024 SDHC3 KO (SDHC): IC50 ratio compared to IPO323 values; for IC50: mitochondria of 06STD024 ZtSDHC3 deletion mutant, mean of three ± SD
Description: (§1) Succinate-ubiquinone oxidoreductase (SQR) inhibition assays were performed on mitochondrial extracts from a panel of strains that were (i) either carrying a unique C-subunit encoding gene (ZtSDHC1, ZtSDHC1_A84I or Zt-SDHC3), or (ii) carrying two C-subunit encoding genes ZtSDHC1 and ZtSDHC3 (Table 1).
(§2) Biomass production, mitochondrial extraction and purification were performed as described in [14]. Succinate: ubiquinone/DCPIP sensitivity tests were performed as described in [14] with minor modification. The different mitochondrial suspensions were adjusted to similar initial velocity (1 OD595nm hour^-1) and inhibitor concentrations ranged between 0.047nM and 50μM with uniform 4x dilution steps (11 concentrations + DMSO control). Calculated absorbance slopes (OD/min) were used for IC50 calculations using GraphPad Prism 6.07 software non-linear curve fitting against log inhibitor concentrations.

[2] = target: altC-SQR (altC) of D024 SDHC1 KO mitochondria (Zymoseptoria tritici, UniProt A0A1X7RQW2+F9X9V6+O42772); test: Succinate-quinone (SQR) SDHI sensitivity assay on purified mitochondria, 06STD024 SDHC1 KO; type: biochemical; conditions: for IC50: mitochondria of 06STD024 ZtSDHC1 deletion mutant (pure altC-SQR), mean of three ± SD
altC-SQR (altC) of D024 SDHC1 KO mitochondria, sequence (A0A1X7RQW2 36-181): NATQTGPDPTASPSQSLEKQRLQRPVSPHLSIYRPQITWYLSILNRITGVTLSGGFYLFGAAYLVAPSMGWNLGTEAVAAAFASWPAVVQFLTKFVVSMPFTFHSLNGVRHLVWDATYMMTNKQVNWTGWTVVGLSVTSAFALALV
altC-SQR (altC) of D024 SDHC1 KO mitochondria, sequence (O42772 20-297): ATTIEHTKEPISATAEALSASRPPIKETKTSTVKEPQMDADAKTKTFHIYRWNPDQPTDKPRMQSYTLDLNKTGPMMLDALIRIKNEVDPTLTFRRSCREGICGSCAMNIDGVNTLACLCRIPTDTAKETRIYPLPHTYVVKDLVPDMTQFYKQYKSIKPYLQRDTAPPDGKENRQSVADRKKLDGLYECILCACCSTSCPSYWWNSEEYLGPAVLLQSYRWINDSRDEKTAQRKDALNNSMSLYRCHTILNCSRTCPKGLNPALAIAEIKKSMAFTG
altC-SQR (altC) of D024 SDHC1 KO mitochondria, sequence (F9X9V6 1-193): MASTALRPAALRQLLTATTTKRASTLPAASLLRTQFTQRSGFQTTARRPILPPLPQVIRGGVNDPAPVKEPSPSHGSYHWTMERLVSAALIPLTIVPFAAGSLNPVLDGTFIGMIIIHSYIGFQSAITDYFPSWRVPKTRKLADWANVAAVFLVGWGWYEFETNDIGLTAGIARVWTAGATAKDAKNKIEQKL
altC-SQR (altC) of D024 SDHC1 KO mitochondria, sequence (F9WWR1 41-643 partner): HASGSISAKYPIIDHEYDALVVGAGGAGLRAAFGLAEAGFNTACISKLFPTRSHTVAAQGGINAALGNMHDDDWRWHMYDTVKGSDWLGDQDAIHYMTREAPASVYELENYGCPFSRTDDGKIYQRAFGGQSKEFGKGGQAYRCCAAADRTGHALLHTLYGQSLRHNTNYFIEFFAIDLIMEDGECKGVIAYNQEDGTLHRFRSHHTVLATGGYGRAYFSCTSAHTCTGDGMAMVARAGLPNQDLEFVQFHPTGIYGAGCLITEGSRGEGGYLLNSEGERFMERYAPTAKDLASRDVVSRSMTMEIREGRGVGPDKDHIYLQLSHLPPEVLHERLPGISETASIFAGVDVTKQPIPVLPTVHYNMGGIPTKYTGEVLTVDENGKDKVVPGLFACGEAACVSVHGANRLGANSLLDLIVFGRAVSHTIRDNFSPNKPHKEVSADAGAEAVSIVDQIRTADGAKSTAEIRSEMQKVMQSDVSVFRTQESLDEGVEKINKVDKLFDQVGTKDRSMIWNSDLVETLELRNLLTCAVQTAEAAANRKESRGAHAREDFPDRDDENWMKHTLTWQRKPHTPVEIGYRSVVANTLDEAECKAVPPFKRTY
Description: as §1
(§3) Biomass production, mitochondrial extraction and purification were performed as described in [14]. Succinate: ubiquinone/DCPIP sensitivity tests were performed as described in [14] with minor modification.

[3] = target: SQR of 06STD024 (SDHC / altC) mitochondria (Zymoseptoria tritici, UniProt A0A1X7RQW2+F9X9V6+F9XH52+O42772); test: Succinate-quinone (SQR) SDHI sensitivity assay on purified mitochondria, 06STD024; type: biochemical; conditions: for IC50: mitochondria of field isolate 06STD024, mean of three ± SD
Description: as §1, §3

[4] = target: WT-SQR (SDHC), IPO323 mitochondria (Zymoseptoria tritici, UniProt F9X9V6+F9XH52+O42772); test: Succinate-quinone (SQR) SDHI sensitivity assay on purified mitochondria, IPO323; type: biochemical
Description: as §1, §2

[5] = target: SQR (SDHC / altC) of IPO323 pTet::SDHC3 transformant, repressed (Zymoseptoria tritici, UniProt A0A1X7RQW2+F9X9V6+F9XH52+O42772); test: Succinate-quinone (SQR) SDHI sensitivity assay on purified mitochondria, IPO323 pTet::SDHC3 repressed; type: biochemical; conditions: for IC50: IPO323 pTet::SDHC3 transformant grown in presence of 30 mg.L^-1 doxycycline, mean of three ± SD
SQR (SDHC / altC) of IPO323 pTet::SDHC3 transformant, repressed, sequence (F9XH52 44-187): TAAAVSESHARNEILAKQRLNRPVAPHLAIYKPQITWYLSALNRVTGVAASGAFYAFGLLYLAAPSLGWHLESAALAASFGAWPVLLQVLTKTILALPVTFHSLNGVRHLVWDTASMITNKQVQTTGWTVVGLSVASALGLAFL
SQR (SDHC / altC) of IPO323 pTet::SDHC3 transformant, repressed, sequence (O42772 20-297): as the sequence (O42772 20-297) above
SQR (SDHC / altC) of IPO323 pTet::SDHC3 transformant, repressed, sequence (F9X9V6 1-193): as the sequence (F9X9V6 1-193) above
SQR (SDHC / altC) of IPO323 pTet::SDHC3 transformant, repressed, sequence (A0A1X7RQW2 36-181): as the sequence (A0A1X7RQW2 36-181) above
SQR (SDHC / altC) of IPO323 pTet::SDHC3 transformant, repressed, sequence (F9WWR1 41-643 partner): as the sequence (F9WWR1 41-643 partner) above
Description: as §1, §3

[6] = tested on: SQR (SDHC / altC) of IPO323 pTet::SDHC3 transformant, induced; test: Succinate-quinone (SQR) SDHI sensitivity assay on purified mitochondria, IPO323 pTet::SDHC3 induced; type: biochemical, Zymoseptoria tritici; conditions: IPO323 pTet::SDHC3 transformant grown in the absence of doxycycline; mean of three ± SD
Description: as §1, §3

[7] = tested on: Zymoseptoria tritici field and genetically modified strains; test: Liquid culture assay for fungicide sensitivity determination; type: cell-based; conditions: Zymoseptoria tritici, liquid culture sensitivity
Description: Sensitivity towards commercial fungicides was determined for a set of 99 SHA-SDHI-naïve Z. tritici field isolates sampled in Europe between 2006 and 2009. The EC50 of these isolates was determined in liquid growth assays and the data obtained compared for each possible pair of SDHI fungicides (cross-resistance (XR) plots, Fig 1). […] Comparative succinate-quinone reductase (SQR) enzyme inhibition tests were performed with mitochondria extracted from a panel of SHA-SDHIs tolerant and sensitive isolates.
In order to characterize in more depth the mechanisms driving sensitivity differences across the isolates, a subset of eight isolates carrying the ZtSDHC3 gene was analyzed for their sensitivity to SDHIs, alt-SDHC expression and splicing patterns. Liquid culture growth sensitivity tests were performed to determine EC50s for this set of isolates towards a wide range of commercial and research SDHIs (S5 Table).
Pre-culture of the inoculum and fungicide sensitivity tests were performed following previously described procedures. Different ranges of inhibitor concentrations were used for population monitoring and for the detailed phenotyping of a selected set of individual field isolates and genetically modified strains. For fungicide sensitivity monitoring of European field populations, final inhibitors concentrations were between 100 mg.L^-1 and 0.0001 mg.L^-1 with uniform 10x dilution steps (7 inhibitor concentrations + DMSO control). For refined sensitivity analysis of a smaller panel of isolates final inhibitor concentrations ranged between 0.5 mM and 0.47 nM with uniform 4x dilution factor steps (11 inhibitor concentrations+ DMSO control).

[8] = IC50 ratio compared to IPO323 values
[9] = read-out: EC50 (nM) Mean, strain 06STD024
[10] = read-out: EC50 (nM) Mean, strain 07STGB009
[11] = read-out: EC50 (nM) Mean, strain 09STD041
[12] = read-out: EC50 (nM) Mean, strain 09STD053
[13] = read-out: EC50 (nM) Mean, strain 09STF011
[14] = read-out: EC50 (nM) Mean, strain 09STF037
[15] = read-out: EC50 (nM) Mean, strain 09STF112
[16] = read-out: EC50 (nM) Mean, strain 09STIR20.3
[17] = read-out: EC50 (nM) Mean, strain Flu21 (SDHC1_A84I)
[18] = read-out: EC50 (nM) Mean, strain IPO323
[19] = read-out: EC50 (nM) Mean, strain IPO94269
[20] = read-out: EC50 (nM) Mean, strain KO_SDHC1_T1
[21] = read-out: EC50 (nM) Mean, strain KO_SDHC1_T3
[22] = read-out: EC50 (nM) Mean, strain KO_SDHC3_T4
[23] = read-out: EC50 (nM) Mean, strain KO_SDHC3_T13
[24] = read-out: EC50 (nM) Mean, strain pTet::SDHC3_I78A_T1
[25] = read-out: EC50 (nM) Mean, strain pTet::SDHC3_I78A_T5
[26] = read-out: EC50 (nM) Mean, strain pTet::SDHC3_I78A_T15
[27] = read-out: EC50 (nM) Mean, strain pTet::SDHC3_I78A_T35
[28] = read-out: EC50 (nM) Mean, strain pTet::SDHC3_T1
[29] = read-out: EC50 (nM) Mean, strain pTet::SDHC3_T2
[30] = read-out: EC50 (nM) Mean, strain pTet::SDHC3_T3
[31] = read-out: EC50 (nM) Mean, strain pTet::SDHC3_T7

SQR (SDHC) of D024 SDHC3 KO mitochondria, sequence (F9XH52 44-187): as the sequence (F9XH52 44-187) above
SQR (SDHC) of D024 SDHC3 KO mitochondria, sequence (O42772 19-297): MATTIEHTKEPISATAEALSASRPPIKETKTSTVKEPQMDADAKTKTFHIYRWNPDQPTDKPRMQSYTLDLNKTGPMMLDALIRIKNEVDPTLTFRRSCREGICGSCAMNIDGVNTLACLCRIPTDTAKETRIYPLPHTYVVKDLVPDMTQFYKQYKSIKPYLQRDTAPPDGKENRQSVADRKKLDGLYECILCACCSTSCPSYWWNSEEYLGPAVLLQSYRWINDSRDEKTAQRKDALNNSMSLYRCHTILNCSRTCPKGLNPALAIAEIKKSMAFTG
SQR (SDHC) of D024 SDHC3 KO mitochondria, sequence (F9X9V6 1-193): as the sequence (F9X9V6 1-193) above
SQR (SDHC) of D024 SDHC3 KO mitochondria, sequence (F9WWR1 29-643 partner): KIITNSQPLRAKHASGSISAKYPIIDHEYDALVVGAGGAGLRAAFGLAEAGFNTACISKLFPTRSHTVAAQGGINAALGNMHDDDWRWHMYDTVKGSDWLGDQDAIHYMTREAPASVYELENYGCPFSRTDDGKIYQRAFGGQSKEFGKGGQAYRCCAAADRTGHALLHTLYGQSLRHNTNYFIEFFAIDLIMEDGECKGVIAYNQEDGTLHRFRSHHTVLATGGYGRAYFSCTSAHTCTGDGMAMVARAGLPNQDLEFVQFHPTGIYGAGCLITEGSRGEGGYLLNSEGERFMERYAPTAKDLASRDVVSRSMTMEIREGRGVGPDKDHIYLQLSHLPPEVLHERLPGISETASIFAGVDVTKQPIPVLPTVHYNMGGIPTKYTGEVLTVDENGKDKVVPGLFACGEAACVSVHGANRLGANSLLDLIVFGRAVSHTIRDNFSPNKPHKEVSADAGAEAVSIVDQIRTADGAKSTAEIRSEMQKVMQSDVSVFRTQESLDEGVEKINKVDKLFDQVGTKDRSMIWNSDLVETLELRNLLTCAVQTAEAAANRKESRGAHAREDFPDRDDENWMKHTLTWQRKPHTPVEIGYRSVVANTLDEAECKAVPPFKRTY

Row | Structure (SMILES) | RF (resistance factor), D024 SDHC3 KO (SDHC) [1] | IC50 [1] [nM] | IC50 [2] [nM] | IC50 [3] [nM] | IC50 [4] [nM] | IC50 [5] [nM] | IC50 [6] [nM] | EC50 [7, 9] [nM] | EC50 [7, 10] [nM] | EC50 [7, 11] [nM] | EC50 [7, 12] [nM] | EC50 [7, 13] [nM] | EC50 [7, 14] [nM] | EC50 [7, 15] [nM] | EC50 [7, 16] [nM] | EC50 [7, 17] [nM] | EC50 [7, 18] [nM] | EC50 [7, 19] [nM] | EC50 [7, 20] [nM] | EC50 [7, 21] [nM] | also measured
1 | O=C(Nc1ccccc1-c1ccc(Cl)cc1)c1cccnc1Cl [Boscalid] | 1.0 | 16.4 ± 2.4 | 54.4 ± 12.9 | 61.9 ± 16 | 17 ± 3.7 | 29.8 ± 4 | 40.3 ± 2.7 | 1180 | 514 | 644 | 512 | 581 | 591 | 720 | 798 | 3020 | 384 | 853 | 2160 | 2050 | RF (resistance factor), D024 SDHC1 KO (altC) [2, 8]: 3.2; RF (resistance factor), 06STD024 (SDHC / altC) [3, 8]: 3.6; RF (resistance factor), pTet Repressed (SDHC / altC) [5, 8]: 1.8; EC50 [7, 22]: 637 nM; EC50 [7, 23]: 681 nM; EC50 [7, 24]: 776 nM; EC50 [7, 25]: 1680 nM; EC50 [7, 26]: 768 nM; EC50 [7, 27]: 270 nM; EC50 [7, 28]: 1300 nM; EC50 [7, 29]: 1420 nM; EC50 [7, 30]: 1450 nM; EC50 [7, 31]: 1460 nM
2 | Cn1cc(C(=O)NCCc2ccc(Cl)cc2Cl)c(C(F)F)n1 [Compound 1] | 0.7 | 79.4 ± 7.6 | 940 ± 238 | 875 ± 159 | 113 ± 10.9 | 152 ± 17.5 | 484 ± 42.8 | 14700 | 15700 | 6050 | 6070 | 7870 | 4910 | 8980 | 4360 | 49100 | 3580 | 2710 | 125000 | 78800 | EC50 [7, 22]: 9090 nM; EC50 [7, 23]: 7200 nM; EC50 [7, 24]: 4610 nM; EC50 [7, 25]: 7960 nM; EC50 [7, 26]: 3300 nM; EC50 [7, 27]: 4430 nM; EC50 [7, 28]: 33300 nM; EC50 [7, 29]: 35300 nM; EC50 [7, 30]: 22900 nM; EC50 [7, 31]: 35300 nM

Reference: article PMC6941823, “A dispensable paralog of succinate dehydrogenase subunit C mediates standing resistance towards a subclass of SDHI fungicides in Zymoseptoria tritici” (PLoS Pathogens, 2019)
